# In publication PMC7129073 (Clinical Microbiology and Infection, 2015):
# Like-named read-outs stand apart in the source and are kept apart here.
# Key:
# B. fragilis = experiment: NCCLS broth microdilution, beta-lactamase positive isolates; type: cell-based, Bacteroides fragilis; settings: 48 hr
# B. distasonis = experiment: as above; type: cell-based, Bacteroides distasonis; settings: 48 hr
# B. thetaiotaomicron = experiment: as above; type: cell-based, Bacteroides thetaiotaomicron; settings: 48 hr
# B. ovatus = experiment: as above; type: cell-based, Bacteroides ovatus; settings: 48 hr
# B. vulgatus = experiment: as above; type: cell-based, Bacteroides vulgatus; settings: 48 hr
# Salmonella spp. = experiment: Agar dilution susceptibility, gastroenteritis isolates Cuba; type: cell-based; settings: 34 strains, 2002
# [1] = test system: Salmonella serotype Typhimurium; experiment: Disk diffusion, food isolates Spain; type: cell-based; settings: n = 53
# S. pneumoniae (SPN) = experiment: SENTRY Brazil, NCCLS broth microdilution; type: cell-based, Streptococcus pneumoniae
# H. influenzae (HI) = experiment: SENTRY Brazil, NCCLS broth microdilution; type: cell-based, Haemophilus influenzae
# enterococci [2] = experiment: Disk diffusion and E-test, faecal isolates of cancer patients; type: cell-based, Enterococcus; settings: 38 strains; gentamycin: high level
# N.gonorrhoeae = experiment: microbe, parasite or virus in culture; type: cell-based; settings: Neisseria gonorrhoeae
# Acinetobacter = experiment: Disk diffusion; type: cell-based; settings: 37 isolates selected as resistant to beta-lactams
# [3] = test system: viridans group streptococci (VgS) and Streptococcus bovis; experiment: Broth microdilution and disk diffusion; type: cell-based; settings: nine species
# Streptococcus pneumoniae = experiment: BSAC agar dilution, lower respiratory isolates UK and Ireland; type: cell-based
# S. pyogenes = experiment: Broth microdilution; type: cell-based, Streptococcus pyogenes; settings: 212 isolates
# nontyphoidal Salmonella = experiment: Agar dilution, isolates from chickens 1998–2004; type: cell-based, Salmonella spp.
# enterococci [4] = experiment: Disk diffusion, urine isolates of BPH patients; settings: strains isolated post-operatively
# [5] = test system: Pseudomonas putida clinical isolates; experiment: Agar dilution MIC; type: cell-based
# Shigella spp. = experiment: Disk diffusion, stool isolates Tehran; type: cell-based; settings: 96 isolates
# K. oxytoca isolate = experiment: MIC of qnr-positive SHV-12 producer; type: cell-based; settings: Klebsiella oxytoca
# [6] = test system: Streptococcus agalactiae strains P0162 and P0425; experiment: Microdilution; type: cell-based
# Salmonella enterica = experiment: VITEK, NCCLS microdilution and disc diffusion of quinolones; type: cell-based
# K. pneumoniae [7] = experiment: MIC; type: cell-based, Klebsiella pneumoniae; settings: Klebsiella pneumoniae
# N. farcinica strain = experiment: E-test on Mueller-Hinton agar; type: cell-based; settings: Nocardia farcinica
# Pseudomonas spp. = experiment: MIC; type: cell-based
# [8] = test system: inducible Enterobacteriaceae; experiment: SMART 2003, intraabdominal isolates; type: cell-based
# Enterobacteriaceae = experiment: SMART 2003 Europe, microdilution; type: cell-based; settings: 1948 isolates
# E. coli [9] = experiment: SMART 2003 Europe, microdilution; type: cell-based, Escherichia coli; settings: 1106 isolates
# Klebsiella = experiment: SMART 2003 Europe, microdilution; type: cell-based, Klebsiella spp.; settings: 341 isolates
# E. coli [10] = experiment: E-test susceptibility; type: cell-based, Escherichia coli
# K. pneumoniae [11] = experiment: E-test susceptibility; type: cell-based, Klebsiella pneumoniae
# K. oxytoca = experiment: E-test susceptibility; type: cell-based, Klebsiella oxytoca
# Gram-negative rods = experiment: Microscan MIC, blood culture isolates; type: cell-based
# Pseudomonas aeruginosa = experiment: MIC, strains from cystic fibrosis patients; settings: by MIC
# [12] = test system: viridans group streptococci (VGS); experiment: MIC; type: cell-based
# E. coli [13] = experiment: Resistance of UTI isolates of renal transplant recipients; type: cell-based, Escherichia coli; settings: 75 isolates
# Nocardia spp. = experiment: E-test on Mueller Hinton agar, 81 clinical isolates; type: cell-based; settings: Nocardia
# S. pneumoniae = experiment: PROTEKT Italy, NCCLS microdilution; type: cell-based, Streptococcus pneumoniae
# Escherichia coli O157:H7 = experiment: Kirby-Bauer susceptibility; type: cell-based; settings: 30 strains, 1990–2003
# [14] = test system: Salmonella, other 49 serotypes; experiment: Disk diffusion, food isolates Spain; type: cell-based; settings: n = 115
# [15] = test system: Enterobacter cloacae (ECL); experiment: Broth microdilution; type: cell-based
# Escherichia coli (ECO) = experiment: Broth microdilution; type: cell-based
# Proteus mirabilis (PMI) = experiment: Broth microdilution; type: cell-based
# [16] = test system: Klebsiella pneumoniae (KPN)
compound,measurement,setting,value
"C[C@]1(Cn2ccnn2)[C@H](C(=O)O)N2C(=O)C[C@H]2S1(=O)=O [Tz, Tazobactam]",isolates inhibited at 8 mg/L,B. fragilis,97%
same,isolates inhibited at 16 mg/L,B. fragilis,98%
same,isolates inhibited at =/< 4 mg/L,B. fragilis,86%
same,isolates inhibited at 8 mg/L,B. distasonis,50%
same,isolates inhibited at 16 mg/L,B. distasonis,100%
same,isolates inhibited at =/< 4 mg/L,B. distasonis,25%
same,isolates inhibited at 16 mg/L,B. thetaiotaomicron,100%
same,isolates inhibited at =/< 4 mg/L,B. thetaiotaomicron,42%
same,isolates inhibited at 8 mg/L,B. ovatus,56%
same,isolates inhibited at 16 mg/L,B. ovatus,86%
same,isolates inhibited at =/< 4 mg/L,B. ovatus,23%
same,isolates inhibited at 8 mg/L,B. vulgatus,83%
same,isolates inhibited at 16 mg/L,B. vulgatus,100%
same,isolates inhibited at =/< 4 mg/L,B. vulgatus,50%
CN(C)[C@@H]1C(O)=C(C(N)=O)C(=O)[C@@]2(O)C(O)=C3C(=O)c4c(O)cccc4[C@@](C)(O)[C@H]3C[C@@H]12 [tetracycline],resistance,Salmonella spp.,53%
same,resistance rate (NCCLS M100-S13),[1],72%
same,% S,S. pneumoniae (SPN); 1998,72%
same,% S,S. pneumoniae (SPN); 1999,75%
same,% S,S. pneumoniae (SPN); 2000,82%
same,% S,S. pneumoniae (SPN); 2001,78%
same,% S,S. pneumoniae (SPN); 2002,86%
same,% S,S. pneumoniae (SPN); 2003,85%
same,% S,H. influenzae (HI); 1998,96%
same,% S,H. influenzae (HI); 1999,84%
same,% S,H. influenzae (HI); 2000,95%
same,% S,H. influenzae (HI); 2001,95%
same,% S,H. influenzae (HI); 2002,98%
same,% S,H. influenzae (HI); 2003,96%
same,resistant strains,enterococci [2],55%
same,MIC,N.gonorrhoeae; strain 76mu6,8 µg/mL
same,MIC,N.gonorrhoeae; strain 76mu10,8 µg/mL
same,MIC,N.gonorrhoeae; strain 92mu6,2 µg/mL
same,MIC,N.gonorrhoeae; strain 92mu13,2 µg/mL
same,resistant isolates,Acinetobacter,100.0%
same,"% S, range between species",[3],35.0 – 93.9%
same,"resistance (PEN-NS >0.06, TET-R >1, ERY-R >0.5, CIP-R >2 mg/L)","Streptococcus pneumoniae; Ireland 1999–2000, N 66",24.2%
same,resistance (same cut-offs),"Streptococcus pneumoniae; Ireland 2000–2001, N 59",25.4%
same,resistance (same cut-offs),"Streptococcus pneumoniae; Ireland 2001–2002, N 68",16.2%
same,resistance (same cut-offs),"Streptococcus pneumoniae; Ireland 2002–2003, N 89",10.1%
same,resistance (same cut-offs),"Streptococcus pneumoniae; Ireland 2003–2004, N 76",7.9%
same,resistance (same cut-offs),"Streptococcus pneumoniae; UK 1999–2000, N 595",7.2%
same,resistance (same cut-offs),"Streptococcus pneumoniae; UK 2000–2001, N 608",6.3%
same,resistance (same cut-offs),"Streptococcus pneumoniae; UK 2001–2002, N 631",4.8%
same,resistance (same cut-offs),"Streptococcus pneumoniae; UK 2002–2003, N 683",5.7%
same,resistance (same cut-offs),"Streptococcus pneumoniae; UK 2003–2004, N 709",6.2%
same,nonsusceptible,S. pyogenes,25.9%
same,resistance,"nontyphoidal Salmonella; Belgian collection (caecal samples; Belgium, France, Netherlands)",33%
same,resistance,enterococci [4],77.8%
CCn1cc(C(=O)O)c(=O)c2cc(F)c(N3CCNCC3)cc21 [norfloxacin],MIC,[5],> 128 µg/mL
same,sensitive,Shigella spp.,100%
same,MIC,K. oxytoca isolate,< 0.1 µg/mL
same,MIC,"[6]; strain P0162 (ParC Ser79Phe, GyrA Glu85Ala)",> 256 µg/mL
same,MIC,"[6]; strain P0425 (ParC Ser79Phe, GyrA Glu85Lys)",> 256 µg/mL
same,MIC,"Salmonella enterica; read-out: NCCLS MIC, 37 NAL-R strains",0.54 µg/mL
same,MIC,"Salmonella enterica; read-out: NCCLS MIC, NAL-S strains",≤ 0.06 µg/mL
same,MIC,"Salmonella enterica; read-out: VITEK MIC, 37 strains",2 µg/mL
same,MIC,"Salmonella enterica; read-out: VITEK MIC, five strains",< 0.5 µg/mL
same,resistant isolates,Acinetobacter,100.0%
C[C@@H](O)[C@H]1C(=O)N2C(C(=O)O)=C(S[C@@H]3CN[C@H](C(=O)N(C)C)C3)[C@H](C)[C@H]12 [meropenem],MIC,K. pneumoniae [7],4 to 16 µg/mL
same,MIC,N. farcinica strain,> 32 µg/mL
same,resistant isolates,Acinetobacter,0.0%
same,susceptible strains,Pseudomonas spp.,98%
same,% susceptible,[8]; A/P (N = 200),100%
same,% susceptible,[8]; EU (N = 354),99%
same,% susceptible,[8]; LA (N=113),98%
same,% susceptible,[8]; NA (N = 163),99%
same,per cent susceptible,Enterobacteriaceae,>99%
same,per cent susceptible,E. coli [9],>99%
same,per cent susceptible,Klebsiella,99%
same,Susceptible isolates,"E. coli [10]; ICU, SRGA breakpoints, tigecycline tentative S ≤2 μg/ml",100%
same,Susceptible isolates,E. coli [10]; non ICU,99%
same,Susceptible isolates,K. pneumoniae [11]; ICU,100/100%
same,Susceptible isolates,K. pneumoniae [11]; non ICU,100/100%
same,Susceptible isolates,K. oxytoca; ICU,100/100%
same,Susceptible isolates,K. oxytoca; non ICU,100/100%
same,susceptible strains (n/N),Gram-negative rods,16/16
same,Susceptible isolates,Pseudomonas aeruginosa,96%
CO/N=C(\C(=O)N[C@@H]1C(=O)N2C(C(=O)O)=C(CSc3nc(=O)c(=O)[nH]n3C)CS[C@H]12)c1csc(N)n1 [ceftriaxone],MIC50,[12],0.06 µg/mL
same,MIC90,[12],0.5 µg/mL
same,sensitive,Shigella spp.,100%
same,rate of resistance,E. coli [13],1%
same,MIC,N.gonorrhoeae; strain 76mu6,0.12 µg/mL
same,MIC,N.gonorrhoeae; strain 92mu6,0.015 µg/mL
same,MIC,N.gonorrhoeae; strain 92mu13,0.008 µg/mL
same,MIC50,Nocardia spp.,8 µg/mL
same,MIC90,Nocardia spp.,> 256 µg/mL
same,resistant isolates,Acinetobacter,75.7%
same,% susceptible,[8]; A/P (N = 200),60%
same,% susceptible,[8]; EU (N = 354),79%
same,% susceptible,[8]; LA (N=113),71%
same,% susceptible,[8]; NA (N = 163),75%
same,per cent susceptible,Enterobacteriaceae,91%
same,per cent susceptible,Klebsiella,89%
same,susceptible,S. pneumoniae; year 1: 2002,88.9%
same,susceptible,S. pneumoniae; year 2: 2003,93.7%
CCn1cc(C(=O)O)c(=O)c2ccc(C)nc21 [nalidixic acid],resistant strains,Escherichia coli O157:H7,10%
same,resistance rate (NCCLS M100-S13),[14],14%
same,sensitive,Shigella spp.,96%
same,MIC,K. oxytoca isolate,16 µg/mL
same,resistance,[15]; 1984,2.0%
same,resistance,[15]; 2001,17.5%
same,resistance,Escherichia coli (ECO); 1984,1.6%
same,resistance,Escherichia coli (ECO); 2001,19.2%
same,resistance,Proteus mirabilis (PMI); 1984,2.6%
same,resistance,Proteus mirabilis (PMI); 2001,15.9%
same,resistance,nontyphoidal Salmonella; Germany (carcass meat),9%
same,resistance,[16]; 1984,12.2%
same,resistance,[16]; 2001,21.6%
Ampicillin/ Sulbactam [A/S],rate of resistance,E. coli [13],34%
same,resistant isolates,Acinetobacter,10.8%
